From PubChem BioAssay (NCI)
Where “and” joins values, the source holds several entries; their conditions need not be identical. Equal entries are not always repeated.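 Results reflect a 48-hour exposure of cells in 96-well plates to compound at five concentrations. Abbreviation: GI50, concentration required for 50% inhibition of growth. TGI: concentration producing complete growth inhibition.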

What was measured:
Test in all cases: NCI-60 cell line screen, 48 h
SF-539 CNS = system: SF-539 CNS
CCRF-CEM leukemia = system: CCRF-CEM leukemia
TK-10 renal = system: TK-10 renal
CAKI-1 renal = system: CAKI-1 renal
UACC-62 melanoma = system: UACC-62 melanoma
HOP-62 NSCLC = system: HOP-62 NSCLC
HT29 colon = system: HT29 colon
UACC-257 melanoma = system: UACC-257 melanoma
M14 melanoma = system: M14 melanoma
786-0 renal = system: 786-0 renal
A549 NSCLC = system: A549 NSCLC
NCI-H23 lung = system: NCI-H23 lung
OVCAR-3 ovarian = system: OVCAR-3 ovarian
HL-60(TB) leukemia = system: HL-60(TB) leukemia
SK-OV-3 ovarian = system: SK-OV-3 ovarian
HCC-2998 colon = system: HCC-2998 colon
KM12 colon = system: KM12 colon
SK-MEL-5 melanoma = system: SK-MEL-5 melanoma
T-47D breast = system: T-47D breast
SK-MEL-2 melanoma = system: SK-MEL-2 melanoma
ACHN renal = system: ACHN renal
MCF7 breast = system: MCF7 breast
SK-MEL-28 melanoma = system: SK-MEL-28 melanoma
MDA-N = system: MDA-N
UO-31 renal = system: UO-31 renal
OVCAR-8 ovarian = system: OVCAR-8 ovarian
HCT-116 colon = system: HCT-116 colon
HS 578T breast = system: HS 578T breast
A498 renal = system: A498 renal
COLO 205 colon = system: COLO 205 colon
DU-145 prostate = system: DU-145 prostate
LOX IMVI melanoma = system: LOX IMVI melanoma
PC-3 prostate = system: PC-3 prostate
RXF 393 renal = system: RXF 393 renal
SF-295 CNS = system: SF-295 CNS
HCT-15 colon = system: HCT-15 colon
MOLT-4 leukemia = system: MOLT-4 leukemia
MALME-3M melanoma = system: MALME-3M melanoma
EKVX NSCLC = system: EKVX NSCLC
SR leukemia = system: SR leukemia
K-562 leukemia = system: K-562 leukemia
OVCAR-5 ovarian = system: OVCAR-5 ovarian
OVCAR-4 ovarian = system: OVCAR-4 ovarian
NCI-H226 lung = system: NCI-H226 lung
NCI/ADR-RES ovarian = system: NCI/ADR-RES ovarian
U251 CNS = system: U251 CNS
SNB-19 CNS = system: SNB-19 CNS
HOP-92 NSCLC = system: HOP-92 NSCLC
MDA-MB-231 breast = system: MDA-MB-231 breast
SNB-75 CNS = system: SNB-75 CNS
RPMI-8226 leukemia = system: RPMI-8226 leukemia
IGROV1 ovarian = system: IGROV1 ovarian
SN12C renal = system: SN12C renal
NCI-H522 lung = system: NCI-H522 lung
BT-549 breast = system: BT-549 breast
MDA-MB-435 = system: MDA-MB-435
SF-268 CNS = system: SF-268 CNS
SW-620 colon = system: SW-620 colon
NCI-H460 lung = system: NCI-H460 lung

SMILES: CC(=O)Oc1ccccc1C(=O)Nc1ncc([N+](=O)[O-])s1
- GI50 (SF-539 CNS): 2.9 µM
- TGI (SF-539 CNS): 20.6 µM and > 100 µM
- GI50 (CCRF-CEM leukemia): 2.14 µM
- TGI (CCRF-CEM leukemia): 15.1 µM
- GI50 (TK-10 renal): 3.75 µM
- TGI (TK-10 renal): 10.3 µM and > 100 µM
- GI50 (CAKI-1 renal): 2.64 µM
- TGI (CAKI-1 renal): > 100 µM
- GI50 (UACC-62 melanoma): 1.23 µM
- TGI (UACC-62 melanoma): 6.71 µM and > 47.3 µM
- GI50 (HOP-62 NSCLC): 4.45 µM
- TGI (HOP-62 NSCLC): > 75.6 µM
- GI50 (HT29 colon): 3.37 µM
- TGI (HT29 colon): 13.5 µM and 97.5 µM
- GI50 (UACC-257 melanoma): 2.16 µM
- GI50 (M14 melanoma): 2.54 µM
- TGI (M14 melanoma): 7.23 µM and 55.9 µM
- GI50 (786-0 renal): 2.35 µM
- GI50 (A549 NSCLC): 2.94 µM
- TGI (A549 NSCLC): > 100 µM
- GI50 (NCI-H23 lung): 1.8 µM
- TGI (NCI-H23 lung): 6.39 µM and > 63 µM
- GI50 (OVCAR-3 ovarian): 2.76 µM
- TGI (OVCAR-3 ovarian): 13.1 µM and 36.6 µM
- GI50 (HL-60(TB) leukemia): 1.77 µM
- TGI (HL-60(TB) leukemia): 4.24 µM
- GI50 (SK-OV-3 ovarian): 3.2 µM
- TGI (SK-OV-3 ovarian): > 80.3 µM
- GI50 (HCC-2998 colon): 2.03 µM
- TGI (HCC-2998 colon): 13.9 µM and > 100 µM
- GI50 (KM12 colon): 3 µM
- GI50 (SK-MEL-5 melanoma): 1.5 µM
- TGI (SK-MEL-5 melanoma): 3.7 µM and 33 µM
- GI50 (T-47D breast): 2.88 µM
- TGI (T-47D breast): > 26.6 µM and 60.3 µM
- GI50 (SK-MEL-2 melanoma): 2.05 µM
- GI50 (ACHN renal): 2.74 µM
- TGI (ACHN renal): 11.3 µM and > 100 µM
- GI50 (MCF7 breast): 2.26 µM
- TGI (MCF7 breast): 10.3 µM and > 100 µM
- GI50 (SK-MEL-28 melanoma): 2.48 µM
- TGI (SK-MEL-28 melanoma): 15.2 µM and > 100 µM
- TGI (MDA-N): > 90.1 µM
- GI50 (UO-31 renal): 2.16 µM
- GI50 (OVCAR-8 ovarian): 2.73 µM
- TGI (OVCAR-8 ovarian): 25.1 µM and > 100 µM
- GI50 (HCT-116 colon): 2.26 µM
- TGI (HCT-116 colon): 9.55 µM and > 61.2 µM
- GI50 (HS 578T breast): 1.94 µM
- TGI (HS 578T breast): 9.97 µM and > 37.5 µM
- GI50 (A498 renal): 0.245 µM
- GI50 (COLO 205 colon): 1.83 µM
- GI50 (DU-145 prostate): 4.51 µM
- TGI (DU-145 prostate): > 100 µM
- GI50 (LOX IMVI melanoma): 2.74 µM
- TGI (LOX IMVI melanoma): 14.5 µM and > 100 µM
- GI50 (PC-3 prostate): 1.66 µM
- TGI (PC-3 prostate): 6.42 µM and > 51.6 µM
- GI50 (RXF 393 renal): 2.06 µM
- TGI (RXF 393 renal): 13.1 µM and 29.7 µM
- GI50 (SF-295 CNS): 1.91 µM
- GI50 (HCT-15 colon): 2.94 µM
- TGI (HCT-15 colon): 31.3 µM and > 95 µM
- GI50 (MOLT-4 leukemia): 2.64 µM
- GI50 (MALME-3M melanoma): 1.48 µM
- GI50 (EKVX NSCLC): 2.66 µM
- TGI (EKVX NSCLC): > 100 µM
- GI50 (SR leukemia): 2.32 µM
- TGI (SR leukemia): 7.99 µM
- GI50 (K-562 leukemia): 2.53 µM
- TGI (K-562 leukemia): 18.8 µM and > 100 µM
- GI50 (OVCAR-5 ovarian): 4.07 µM
- TGI (OVCAR-5 ovarian): > 100 µM
- GI50 (OVCAR-4 ovarian): 2.05 µM
- TGI (OVCAR-4 ovarian): 13.8 µM and > 100 µM
- GI50 (NCI-H226 lung): 2.62 µM
- TGI (NCI-H226 lung): 8.7 µM and 36.7 µM
- GI50 (NCI/ADR-RES ovarian): 2.29 µM
- TGI (NCI/ADR-RES ovarian): > 85.2 µM
- GI50 (U251 CNS): 1.38 µM
- TGI (U251 CNS): 20.7 µM and > 100 µM
- GI50 (SNB-19 CNS): 2.05 µM
- TGI (SNB-19 CNS): 45.7 µM and > 100 µM
- GI50 (HOP-92 NSCLC): 0.227 µM
- TGI (HOP-92 NSCLC): 0.966 µM and 8.1 µM
- GI50 (MDA-MB-231 breast): 1.95 µM
- GI50 (SNB-75 CNS): 1.6 µM
- TGI (SNB-75 CNS): 7.13 µM and > 67.9 µM
- GI50 (RPMI-8226 leukemia): 0.677 µM
- TGI (RPMI-8226 leukemia): > 100 µM
- GI50 (IGROV1 ovarian): 2.85 µM
- TGI (IGROV1 ovarian): 20.8 µM and > 100 µM
- GI50 (SN12C renal): 1.87 µM
- TGI (SN12C renal): 21.2 µM and 90.9 µM
- GI50 (NCI-H522 lung): 1.63 µM
- TGI (NCI-H522 lung): 6.2 µM and 21.7 µM
- GI50 (BT-549 breast): 1.97 µM
- GI50 (MDA-MB-435): 2.13 µM
- TGI (MDA-MB-435): 7.58 µM and 59.7 µM
- GI50 (SF-268 CNS): 3.35 µM
- TGI (SF-268 CNS): > 79.7 µM
- GI50 (SW-620 colon): 2.76 µM
- TGI (SW-620 colon): > 100 µM
- GI50 (NCI-H460 lung): 2.76 µM
- TGI (NCI-H460 lung): 12.2 µM and > 100 µM
